Laboratory results taken from publication PMC7407272, “Induction of Lysosome Membrane Permeabilization as a Therapeutic Strategy to Target Pancreatic Cancer Stem Cells” (Cancers, 2020).

What was measured:
[1] = molecular target: T1, HPK1 (Homo sapiens, UniProt Q92918); assay: KINOMEscan; format: binding; conditions: read-out: % Ctrl
T1 construct: purchased DiscoveRx KINOMEscan

[2] = molecular target: T2, TTK (Homo sapiens, UniProt P33981); assay: KINOMEscan; format: binding; conditions: read-out: % Ctrl
T2 construct: purchased DiscoveRx KINOMEscan

[3] = molecular target: T3, CAMK1B (Homo sapiens, UniProt Q6P2M8); assay: KINOMEscan; format: binding; conditions: read-out: % Ctrl
T3 construct: purchased DiscoveRx KINOMEscan

[4] = molecular target: T4, PIK3CA(E542K) (Homo sapiens, UniProt P42336, E542K); assay: KINOMEscan; format: binding; conditions: read-out: % Ctrl
T4 construct: purchased DiscoveRx KINOMEscan

[5] = molecular target: T5, DRAK1 (Homo sapiens, UniProt Q9UEE5); assay: KINOMEscan; format: binding; conditions: read-out: % Ctrl
T5 construct: purchased DiscoveRx KINOMEscan

[6] = molecular target: T6, RIPK4 (Homo sapiens, UniProt P57078); assay: KINOMEscan; format: binding; conditions: read-out: % Ctrl
T6 construct: purchased DiscoveRx KINOMEscan
T6 sequence (P57078 whole entry): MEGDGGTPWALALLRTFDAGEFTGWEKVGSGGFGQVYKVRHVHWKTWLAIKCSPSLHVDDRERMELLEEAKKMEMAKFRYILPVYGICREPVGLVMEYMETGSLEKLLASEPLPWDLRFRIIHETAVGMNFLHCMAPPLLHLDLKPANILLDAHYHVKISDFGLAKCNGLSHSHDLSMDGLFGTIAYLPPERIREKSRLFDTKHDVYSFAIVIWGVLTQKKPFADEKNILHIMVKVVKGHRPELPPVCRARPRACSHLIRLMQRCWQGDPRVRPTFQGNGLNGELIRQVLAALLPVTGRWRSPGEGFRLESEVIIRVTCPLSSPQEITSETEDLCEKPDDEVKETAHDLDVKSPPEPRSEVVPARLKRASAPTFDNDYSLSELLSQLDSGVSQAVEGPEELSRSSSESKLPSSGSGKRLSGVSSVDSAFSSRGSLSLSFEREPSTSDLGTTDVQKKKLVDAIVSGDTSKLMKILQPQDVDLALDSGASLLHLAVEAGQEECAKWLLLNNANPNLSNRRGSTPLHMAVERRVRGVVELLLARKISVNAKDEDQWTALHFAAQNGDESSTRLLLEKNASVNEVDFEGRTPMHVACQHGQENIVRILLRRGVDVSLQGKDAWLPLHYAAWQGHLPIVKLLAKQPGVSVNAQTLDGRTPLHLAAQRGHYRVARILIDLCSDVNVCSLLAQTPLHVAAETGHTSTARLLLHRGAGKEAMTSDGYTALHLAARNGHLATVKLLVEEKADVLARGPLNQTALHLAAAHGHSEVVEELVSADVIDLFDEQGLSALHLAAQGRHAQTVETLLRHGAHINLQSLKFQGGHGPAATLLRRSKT

[7] = molecular target: T7, EGFR(G719C) (Homo sapiens, UniProt P00533, G719C); assay: KINOMEscan; format: binding; conditions: read-out: % Ctrl
T7 construct: purchased DiscoveRx KINOMEscan

[8] = molecular target: T8, DDR2 (Homo sapiens, UniProt Q16832); assay: KINOMEscan; format: binding; conditions: read-out: % Ctrl
T8 construct: purchased DiscoveRx KINOMEscan

[9] = molecular target: T9, CDK4 (Homo sapiens, UniProt P11802); assay: KINOMEscan; format: binding; conditions: read-out: % Ctrl
T9 construct: purchased DiscoveRx KINOMEscan

[10] = molecular target: T10, PRKD2 (Homo sapiens, UniProt Q9BZL6); assay: KINOMEscan; format: binding; conditions: read-out: % Ctrl
T10 construct: purchased DiscoveRx KINOMEscan

[11] = molecular target: T11, HIPK1 (Homo sapiens, UniProt Q86Z02); assay: KINOMEscan; format: binding; conditions: read-out: % Ctrl
T11 construct: purchased DiscoveRx KINOMEscan

[12] = molecular target: T12, NEK2 (Homo sapiens, UniProt P51955); assay: KINOMEscan; format: binding; conditions: read-out: % Ctrl
T12 construct: purchased DiscoveRx KINOMEscan

[13] = molecular target: T13, EGFR(L747-E749del, A750P) (Homo sapiens, UniProt P00533, A750P/DEL747-749); assay: KINOMEscan; format: binding; conditions: read-out: % Ctrl
T13 construct: purchased DiscoveRx KINOMEscan

[14] = molecular target: T14, WEE1 (Homo sapiens, UniProt P30291); assay: KINOMEscan; format: binding; conditions: read-out: % Ctrl
T14 construct: purchased DiscoveRx KINOMEscan

[15] = molecular target: T15, PRKCQ (Homo sapiens, UniProt Q04759); assay: KINOMEscan; format: binding; conditions: read-out: % Ctrl
T15 construct: purchased DiscoveRx KINOMEscan

[16] = molecular target: T16, DMPK2 (Homo sapiens, UniProt Q6DT37); assay: KINOMEscan; format: binding; conditions: read-out: % Ctrl
T16 construct: purchased DiscoveRx KINOMEscan

[17] = molecular target: T17, ERK1 (Homo sapiens, UniProt P27361); assay: KINOMEscan; format: binding; conditions: read-out: % Ctrl
T17 construct: purchased DiscoveRx KINOMEscan

[18] = molecular target: T18, EGFR(L858R,T790M) (Homo sapiens, UniProt P00533, L858R/T790M); assay: KINOMEscan; format: binding; conditions: read-out: % Ctrl
T18 construct: purchased DiscoveRx KINOMEscan

[19] = molecular target: T19, FYN (Homo sapiens, UniProt P06241); assay: KINOMEscan; format: binding; conditions: read-out: % Ctrl
T19 construct: purchased DiscoveRx KINOMEscan
T19 sequence (P06241 whole entry): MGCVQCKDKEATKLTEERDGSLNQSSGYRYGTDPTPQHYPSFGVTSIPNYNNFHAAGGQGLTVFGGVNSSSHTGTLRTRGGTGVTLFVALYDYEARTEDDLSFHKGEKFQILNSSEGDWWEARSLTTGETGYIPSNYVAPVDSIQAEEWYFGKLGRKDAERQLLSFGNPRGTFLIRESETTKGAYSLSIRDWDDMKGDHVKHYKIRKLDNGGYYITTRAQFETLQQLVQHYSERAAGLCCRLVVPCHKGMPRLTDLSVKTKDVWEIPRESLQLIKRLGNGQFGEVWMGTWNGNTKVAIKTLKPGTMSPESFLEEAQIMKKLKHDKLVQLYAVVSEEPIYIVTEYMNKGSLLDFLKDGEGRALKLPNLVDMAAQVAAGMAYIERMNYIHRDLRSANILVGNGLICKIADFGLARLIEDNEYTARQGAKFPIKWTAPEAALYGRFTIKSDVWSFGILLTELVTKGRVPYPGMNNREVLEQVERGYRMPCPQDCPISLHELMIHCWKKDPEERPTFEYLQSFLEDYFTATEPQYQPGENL

[20] = molecular target: T20, ARK5 (Homo sapiens, UniProt O60285); assay: KINOMEscan; format: binding; conditions: read-out: % Ctrl
T20 construct: purchased DiscoveRx KINOMEscan

[21] = test system: re-plated PDAC2-derived spheres; assay: Cytosolic cysteine cathepsin activity; format: cell-based, human; conditions: 1.25 or 2.5 µM, 6 h
Procedure: Spheres were re-plated, and then treated the following day with the indicated concentration of compounds for 6 h in CSC media. Cells were subsequently placed on ice and extracted with either 25 µg/mL or 250 µg/mL of digitonin in 250 mM sucrose, 20 mM HEPES, 10 mM KCl, 1.5 mM MgCl2, 1 mM EDTA, 1 mM EGTA, 1 mM pefablock, pH 7.5. The extracts were taken and spun down briefly to eliminate floating cells. Cathepsin activity was measured in a 96 well format by measuring cleavage of zFR-AMC (Z-Phe-Arg-AMC. Z: N-carbobenzyloxy; 7-Amino-4-methylcoumarin), as previously described.

[22] = molecular target: T21, CAMK2A (Homo sapiens, UniProt Q9UQM7); assay: KINOMEscan; format: binding; conditions: read-out: % Ctrl
T21 construct: purchased DiscoveRx KINOMEscan

[23] = molecular target: T22, CASK (Homo sapiens, UniProt O14936); assay: KINOMEscan; format: binding; conditions: read-out: % Ctrl
T22 construct: purchased DiscoveRx KINOMEscan

[24] = molecular target: T23, VPS34 (Homo sapiens, UniProt Q8NEB9); assay: KINOMEscan; format: binding; conditions: read-out: % Ctrl
T23 construct: purchased DiscoveRx KINOMEscan
T23 sequence (Q8NEB9 whole entry): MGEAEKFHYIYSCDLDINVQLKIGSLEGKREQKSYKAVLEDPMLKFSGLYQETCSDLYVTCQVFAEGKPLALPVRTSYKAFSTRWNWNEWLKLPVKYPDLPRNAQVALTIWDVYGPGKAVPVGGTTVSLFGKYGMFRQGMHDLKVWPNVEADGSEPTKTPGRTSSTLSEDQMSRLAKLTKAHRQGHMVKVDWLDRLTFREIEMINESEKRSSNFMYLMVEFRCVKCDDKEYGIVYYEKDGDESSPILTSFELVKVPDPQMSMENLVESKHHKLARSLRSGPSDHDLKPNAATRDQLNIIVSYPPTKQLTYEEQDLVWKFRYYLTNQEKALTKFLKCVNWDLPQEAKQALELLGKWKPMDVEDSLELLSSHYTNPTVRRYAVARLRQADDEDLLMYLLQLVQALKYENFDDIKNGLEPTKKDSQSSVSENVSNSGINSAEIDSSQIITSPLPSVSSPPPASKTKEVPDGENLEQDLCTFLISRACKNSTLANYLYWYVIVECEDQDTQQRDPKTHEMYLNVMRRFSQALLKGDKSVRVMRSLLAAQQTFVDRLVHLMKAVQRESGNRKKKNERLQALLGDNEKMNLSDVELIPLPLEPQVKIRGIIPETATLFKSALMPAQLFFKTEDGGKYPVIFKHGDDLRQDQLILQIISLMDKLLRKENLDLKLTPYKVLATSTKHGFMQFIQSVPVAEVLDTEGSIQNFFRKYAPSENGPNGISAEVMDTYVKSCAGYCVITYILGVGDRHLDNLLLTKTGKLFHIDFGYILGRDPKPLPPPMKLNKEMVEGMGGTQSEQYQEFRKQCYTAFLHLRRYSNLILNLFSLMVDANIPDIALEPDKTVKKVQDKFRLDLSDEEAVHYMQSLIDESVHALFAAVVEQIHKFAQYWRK

[25] = molecular target: T24, MYLK4 (Homo sapiens, UniProt Q86YV6); assay: KINOMEscan; format: binding; conditions: read-out: % Ctrl
T24 construct: purchased DiscoveRx KINOMEscan

[26] = molecular target: T25, PAK1 (Homo sapiens, UniProt Q13153); assay: KINOMEscan; format: binding; conditions: read-out: % Ctrl
T25 construct: purchased DiscoveRx KINOMEscan

[27] = molecular target: T26, GSK3A (Homo sapiens, UniProt P49840); assay: KINOMEscan; format: binding; conditions: read-out: % Ctrl
T26 construct: purchased DiscoveRx KINOMEscan

[28] = molecular target: T27, ROS1 (Homo sapiens, UniProt P08922); assay: KINOMEscan; format: binding; conditions: read-out: % Ctrl
T27 construct: purchased DiscoveRx KINOMEscan

[29] = molecular target: T28, CDKL1 (Homo sapiens, UniProt Q00532); assay: KINOMEscan; format: binding; conditions: read-out: % Ctrl
T28 construct: purchased DiscoveRx KINOMEscan

[30] = molecular target: T29, SIK (Homo sapiens, UniProt P57059); assay: KINOMEscan; format: binding; conditions: read-out: % Ctrl
T29 construct: purchased DiscoveRx KINOMEscan

[31] = molecular target: T30, CDKL5 (Homo sapiens, UniProt O76039); assay: KINOMEscan; format: binding; conditions: read-out: % Ctrl
T30 construct: purchased DiscoveRx KINOMEscan
T30 sequence (O76039 whole entry): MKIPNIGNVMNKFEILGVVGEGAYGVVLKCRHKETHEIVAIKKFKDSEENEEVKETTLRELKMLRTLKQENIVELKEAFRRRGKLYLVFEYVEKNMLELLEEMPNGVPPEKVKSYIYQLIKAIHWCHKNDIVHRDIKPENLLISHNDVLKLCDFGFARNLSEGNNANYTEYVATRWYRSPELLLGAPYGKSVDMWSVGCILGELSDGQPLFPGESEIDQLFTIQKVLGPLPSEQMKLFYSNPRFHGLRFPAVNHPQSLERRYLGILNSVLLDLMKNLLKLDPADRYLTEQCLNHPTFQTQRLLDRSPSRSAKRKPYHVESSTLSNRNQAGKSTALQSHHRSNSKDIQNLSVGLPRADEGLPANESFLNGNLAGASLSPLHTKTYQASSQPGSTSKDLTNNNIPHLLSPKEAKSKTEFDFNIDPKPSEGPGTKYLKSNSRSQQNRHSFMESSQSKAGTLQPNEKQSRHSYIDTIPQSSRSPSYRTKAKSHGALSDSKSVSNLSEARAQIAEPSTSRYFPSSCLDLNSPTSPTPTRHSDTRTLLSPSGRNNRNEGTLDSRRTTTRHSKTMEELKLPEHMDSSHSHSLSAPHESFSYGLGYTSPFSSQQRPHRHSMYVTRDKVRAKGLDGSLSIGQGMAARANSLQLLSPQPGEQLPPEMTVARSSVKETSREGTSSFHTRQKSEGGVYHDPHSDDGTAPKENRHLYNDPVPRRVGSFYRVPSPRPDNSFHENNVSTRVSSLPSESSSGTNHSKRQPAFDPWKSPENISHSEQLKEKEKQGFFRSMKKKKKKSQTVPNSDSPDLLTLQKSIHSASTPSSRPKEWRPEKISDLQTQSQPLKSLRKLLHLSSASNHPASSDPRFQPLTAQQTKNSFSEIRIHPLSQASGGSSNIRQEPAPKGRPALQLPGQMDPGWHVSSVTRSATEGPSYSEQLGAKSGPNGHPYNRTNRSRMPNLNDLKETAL

[32] = molecular target: T31, TYK2(JH1D.-cat.) (Homo sapiens, UniProt P29597); assay: KINOMEscan; format: binding; conditions: read-out: % Ctrl
T31 construct: TYK2(JH1D.-cat.); purchased DiscoveRx KINOMEscan

[33] = molecular target: T32, CDKL3 (Homo sapiens, UniProt Q8IVW4); assay: KINOMEscan; format: binding; conditions: read-out: % Ctrl
T32 construct: purchased DiscoveRx KINOMEscan

[34] = molecular target: T33, JAK3(JH1D.-cat.) (Homo sapiens, UniProt P52333); assay: KINOMEscan; format: binding; conditions: read-out: % Ctrl
T33 construct: JAK3(JH1D.-cat.); purchased DiscoveRx KINOMEscan
T33 sequence (P52333 822-1124 limits assumed): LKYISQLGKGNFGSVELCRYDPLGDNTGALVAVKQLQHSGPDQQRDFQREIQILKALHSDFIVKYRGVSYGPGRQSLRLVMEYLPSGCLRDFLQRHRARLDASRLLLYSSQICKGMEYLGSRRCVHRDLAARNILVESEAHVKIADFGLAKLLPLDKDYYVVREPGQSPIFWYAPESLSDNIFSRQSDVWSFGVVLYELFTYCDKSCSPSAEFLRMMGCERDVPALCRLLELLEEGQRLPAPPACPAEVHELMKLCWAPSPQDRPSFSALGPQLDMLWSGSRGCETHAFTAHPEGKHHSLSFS

[35] = molecular target: T34, RIPK2 (Homo sapiens, UniProt O43353); assay: KINOMEscan; format: binding; conditions: read-out: % Ctrl
T34 construct: purchased DiscoveRx KINOMEscan
T34 sequence (O43353 whole entry): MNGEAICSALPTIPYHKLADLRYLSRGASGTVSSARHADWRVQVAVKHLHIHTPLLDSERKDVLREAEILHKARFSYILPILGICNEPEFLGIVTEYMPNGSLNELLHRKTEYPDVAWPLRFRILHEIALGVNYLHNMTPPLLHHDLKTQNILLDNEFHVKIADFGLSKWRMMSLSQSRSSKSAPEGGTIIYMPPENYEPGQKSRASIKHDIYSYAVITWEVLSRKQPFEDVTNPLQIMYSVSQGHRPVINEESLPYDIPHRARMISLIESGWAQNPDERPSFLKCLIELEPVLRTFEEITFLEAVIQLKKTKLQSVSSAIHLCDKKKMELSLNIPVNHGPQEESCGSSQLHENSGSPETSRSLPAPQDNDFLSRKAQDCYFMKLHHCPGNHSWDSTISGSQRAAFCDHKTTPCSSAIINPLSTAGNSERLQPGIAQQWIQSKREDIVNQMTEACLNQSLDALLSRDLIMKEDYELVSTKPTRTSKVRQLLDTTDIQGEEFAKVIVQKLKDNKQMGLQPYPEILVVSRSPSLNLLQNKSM

[36] = molecular target: T35, DLK (Homo sapiens, UniProt Q12852); assay: KINOMEscan; format: binding; conditions: read-out: % Ctrl
T35 construct: purchased DiscoveRx KINOMEscan

[37] = molecular target: T36, KIT(A829P) (Homo sapiens, UniProt P10721, A829P); assay: KINOMEscan; format: binding; conditions: read-out: % Ctrl
T36 construct: purchased DiscoveRx KINOMEscan

[38] = molecular target: T37, ABL1(F317I)-P (Homo sapiens, UniProt P00519, F317I); assay: KINOMEscan; format: binding; conditions: read-out: % Ctrl
T37 construct: purchased DiscoveRx KINOMEscan

[39] = molecular target: T38, EGFR(T790M) (Homo sapiens, UniProt P00533, T790M); assay: KINOMEscan; format: binding; conditions: read-out: % Ctrl
T38 construct: purchased DiscoveRx KINOMEscan

T1 sequence (Q92918 whole entry): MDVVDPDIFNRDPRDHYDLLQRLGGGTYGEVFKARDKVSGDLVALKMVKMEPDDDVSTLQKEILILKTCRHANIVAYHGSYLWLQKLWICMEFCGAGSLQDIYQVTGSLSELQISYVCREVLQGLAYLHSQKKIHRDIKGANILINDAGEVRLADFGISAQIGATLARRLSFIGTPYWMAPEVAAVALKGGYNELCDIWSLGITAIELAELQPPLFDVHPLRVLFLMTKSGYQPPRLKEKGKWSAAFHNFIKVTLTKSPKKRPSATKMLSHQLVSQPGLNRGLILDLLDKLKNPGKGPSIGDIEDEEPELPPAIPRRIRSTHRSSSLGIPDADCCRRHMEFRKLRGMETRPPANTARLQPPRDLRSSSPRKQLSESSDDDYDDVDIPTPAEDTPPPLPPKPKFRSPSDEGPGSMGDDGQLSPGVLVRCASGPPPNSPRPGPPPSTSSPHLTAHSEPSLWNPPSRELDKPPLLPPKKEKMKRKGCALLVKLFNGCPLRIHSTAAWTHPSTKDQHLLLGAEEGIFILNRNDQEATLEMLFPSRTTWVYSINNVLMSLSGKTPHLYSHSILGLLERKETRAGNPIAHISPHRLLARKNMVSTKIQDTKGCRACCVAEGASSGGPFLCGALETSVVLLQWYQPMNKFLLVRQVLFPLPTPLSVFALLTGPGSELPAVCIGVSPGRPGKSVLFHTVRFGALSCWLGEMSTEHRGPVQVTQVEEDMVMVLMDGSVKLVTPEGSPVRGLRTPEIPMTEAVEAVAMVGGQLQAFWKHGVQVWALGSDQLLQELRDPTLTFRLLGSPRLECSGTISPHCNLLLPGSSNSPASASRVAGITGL

CN1CCC(CNc2ccc3ncc(C(=O)Nc4cccc(OC(F)(F)F)c4)n3n2)CC1 [Cpd 2]
remaining binding at 1 µM [1]: 92%
remaining binding at 1 µM [2]: 63%
remaining binding at 1 µM [3]: 97%
remaining binding at 1 µM [4]: 92%
remaining binding at 1 µM [5]: 97%
remaining binding at 1 µM [6]: 96%
remaining binding at 1 µM [7]: 82%
remaining binding at 1 µM [8]: 89%
remaining binding at 1 µM [9]: 100%
remaining binding at 1 µM [10]: 87%
remaining binding at 1 µM [11]: 100%
remaining binding at 1 µM [12]: 94%
remaining binding at 1 µM [13]: 84%
remaining binding at 1 µM [14]: 96%
remaining binding at 1 µM [15]: 55%
remaining binding at 1 µM [16]: 97%
remaining binding at 1 µM [17]: 100%
remaining binding at 1 µM [18]: 100%
remaining binding at 1 µM [19]: 96%
remaining binding at 1 µM [20]: 88%
cytosolic cysteine cathepsin activity [21]: increased cytosolic cysteine cathepsin activity
remaining binding at 1 µM [22]: 82%
remaining binding at 1 µM [23]: 93%
remaining binding at 1 µM [24]: 75%
remaining binding at 1 µM [25]: 100%
remaining binding at 1 µM [26]: 100%
remaining binding at 1 µM [27]: 100%
remaining binding at 1 µM [28]: 91%
remaining binding at 1 µM [29]: 97%
remaining binding at 1 µM [30]: 99%
remaining binding at 1 µM [31]: 100%
remaining binding at 1 µM [32]: 65%
remaining binding at 1 µM [33]: 91%
remaining binding at 1 µM [34]: 100%
remaining binding at 1 µM [35]: 100%
remaining binding at 1 µM [36]: 100%
remaining binding at 1 µM [37]: 91%
remaining binding at 1 µM [38]: 94%
remaining binding at 1 µM [39]: 96%
